Source: US20090105327A1, “Dibenzocycloheptane compounds and pharmaceuticals containing these compounds” (Merckle GMBH, priority 2005, published 2009)

Experiments:
[1] = target: activated p38α (Homo sapiens, UniProt Q16539); assay: Kinase assay (p38 MAP kinase assay), ATF2 phosphorylation ELISA; format: biochemical; conditions: 100 μM ATP, 10 ng activated p38α, ATF2 substrate; read-out: Inhibition of p 38 MAP kinase assay IC50
Description: Kinase Assay (p38 MAP Kinase Assay)
Microtiter plates were coated with 50 μl of ATF2 solution (20 μg/ml) at 37° C. for one hour. After washing with water three times, 50 μl of kinase mixture (50 mM tris-HCl 10 mM MgCl2, 10 mM β-glycerol phosphate, 10 μg/ml BSA, 1 mM DTT, 100 μM ATP, 100 μM Na3VO4, 10 ng of activated p38α) with or without inhibitor were put into the wells and incubated at 37° C. for 1 hour. After washing three times, the plates were incubated with […] at 37° C. for one hour. After washing again three times, a goat anti-rabbit IgG labeled with alkaline phosphatase was added at 37° C. for one hour (in order to retain the antibody phosphorylated protein-substrate complex). After washing three times, the alkaline phosphatase substrate solution (3 mM 4-NPP, 50 mM NaHCO3, 50 mM MgCl2, 100 μl/well) was added at 37° C. for 1.5 hours. […] The IC50 values are calculated.

[2] = system: TNF-α; assay: tissue or blood; conditions: Homo sapiens, 4 h, read-out: Inhibition of TNF-α (whole blood) IC50
Description: (§1) The compounds or compositions of the invention can be administered to a mammal (human or animal) in a dose of about 0.5 mg to 100 mg per kg of body weight per day. They can be given in a single dose or in a plurality of doses. […] Pharm. Pharm. Med. Chem. 333, Suppl. 1, 1-40, 2000.
(§2) In Vitro Test Method with Human Whole Blood
(§3) Samples of human potassium EDTA whole blood (400 μl each) are mixed with the test substance and preincubated at 37° C. in a CO2 incubator (5% CO2; 95% moisture-saturated air) for 15 min. The samples are then stimulated with 1 μg/ml LPS (E. coli 026:B6) in a CO2 incubator (5% CO2; 95% moisture-saturated air) at 37° C. for 4 hours. The reaction is stopped by placing the samples on ice, adding DPBS buffer and subsequently centrifuging at 1000.g for 15 min. The amount of IL-1β and TNFα in the plasma supernatant is then measured by means of an ELISA.

[3] = system: IL-1β; assay: tissue or blood; conditions: Homo sapiens, 4 h, read-out: Inhibition of IL-1β (whole blood) IC50
Description: as §1, §2, §3

Chain of activated p38α (Q16539 whole entry): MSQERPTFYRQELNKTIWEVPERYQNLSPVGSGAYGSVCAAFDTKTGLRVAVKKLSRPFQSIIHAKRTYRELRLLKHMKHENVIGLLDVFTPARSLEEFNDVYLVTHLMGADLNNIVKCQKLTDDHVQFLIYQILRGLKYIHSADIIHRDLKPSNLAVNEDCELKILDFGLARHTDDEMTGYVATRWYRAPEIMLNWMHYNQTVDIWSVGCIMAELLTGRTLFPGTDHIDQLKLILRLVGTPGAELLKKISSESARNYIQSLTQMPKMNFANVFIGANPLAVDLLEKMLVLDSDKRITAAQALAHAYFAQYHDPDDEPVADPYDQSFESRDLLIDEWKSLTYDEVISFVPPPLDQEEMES

Compound	IC50 [1] [nM]	IC50 [2] [nM]	IC50 [3] [nM]	melting point [°C]
3-(2-Amino-4-fluorophenylamino)-6,11-dihydrodibenzo[b,e]oxepin-11-one [Example 24]	38	–	–	–
Nc1ccccc1Nc1ccc2c(c1)SCc1ccccc1C2=O [Example 4, 3-(2-Aminoanilino)-6,11-dihydrodibenzo[b,e]thiepin-11-one]	1100	–	–	–
Nc1ccccc1Nc1ccc2c(c1)OCc1ccccc1C2=O [Example 5, 3-(2-Aminoanilino)-6,11-dihydrodibenzo[b,e]oxepin-11-one]	300	–	–	–
Nc1ccccc1Nc1ccc2c(c1)CCc1ccccc1C2=O [Example 25, 2-(2-Aminophenylamino)-10,11-dihydrodibenzo[a,d]cycloheptan-5-one]	–	2300	1800	–
COc1ccccc1Nc1ccc2c(c1)CCc1ccccc1C2=O [Example 28, 2-(2-Methoxyphenylamino)-10,11-dihydrodibenzo[a,d]cyclohepten-5-one]	159	–	–	52.5
